The record followed here is ChEMBL document CHEMBL3091444, “5-Chlorothiophene-2-carboxylic acid [(S)-2-[2-methyl-3-(2-oxopyrrolidin-1-yl)benzenesulfonylamino]-3-(4-methylpiperazin-1-yl)-3-oxopropyl]amide (SAR107375), a selective and potent orally active dual thrombin and factor Xa inhibitor” (J Med Chem, 2013).

As a reminder, the Cmax is the maximum level reached in the sampled fluid or tissue. What is called AUC is the area under the concentration-time curve, a measure of exposure. Read a high AUC as high exposure. What is called half-life is the time needed for the level to fall by half in the phase considered. A higher half-life goes with slow decline. Broadly, the Tmax is the time from dosing to the highest level. The clearance is the volume of plasma or blood freed of the substance per unit of time. Higher therefore signals efficient removal. For orientation: bioavailability means the share of a dose that reaches the circulation, judged against a reference dose that is usually intravenous. A low value points to little systemic uptake.

A short description of data set [1]: Metabolic stability in Sprague-Dawley rat liver microsomes at 5 uM after 20 mins. The format is ADME. To be noted: read-out: Stability. On the technique in general: Liver microsomes are vesicles of endoplasmic reticulum, rich in cytochrome P450 enzymes.
Data set [2] in a line: Metabolic stability in human liver microsomes at 5 uM after 20 mins. The format is ADME. To be noted: read-out: Stability.
Data set [3] can be described thus: Metabolic stability in Swiss CD1 mouse liver microsomes at 5 uM after 20 mins. It counts as ADME, Microsome. To be noted: read-out: Stability.
Data set [4] can be described thus: Permeability of the compound across human Caco2 cells. The format is ADME, cell-based. To be noted: Caco-2, read-out: permeability. Background: Passage across Caco-2 layers is used to estimate intestinal permeability.
A short description of data set [5]: Cmax in Sprague-Dawley rat at 3 mg/kg, iv. Further details: dose 3 mg/kg, route intravenous. To be noted: in vivo. The format is ADME, organism-based.
Data set [6] is described as follows: AUC in dog at 10 mg/kg, po. The format is ADME, organism-based, Canis lupus familiaris. The arrangement: dose 10 mg/kg, route oral. To be noted: plasma.
The nature of data set [7]: Half life in Sprague-Dawley rat at 3 mg/kg, iv. The format is ADME, organism-based. To be noted: in vivo. The arrangement: dose 3 mg/kg, route intravenous.
The nature of data set [8]: Tmax in dog at 10 mg/kg, po. The format is ADME, organism-based, Canis lupus familiaris. The arrangement: dose 10 mg/kg, route oral. To be noted: in vivo.
A short description of data set [9]: Half life in dog at 3 mg/kg, iv. The format is ADME, organism-based, Canis lupus familiaris. To be noted: in vivo. The arrangement: dose 3 mg/kg, route intravenous.
The nature of data set [10]: AUC in dog at 3 mg/kg, iv. The format is ADME, organism-based, Canis lupus familiaris. The arrangement: dose 3 mg/kg, route intravenous. To be noted: plasma.
Data set [11] in a line: Clearance in dog at 3 mg/kg, iv. The format is ADME, organism-based, Canis lupus familiaris. To be noted: in vivo. Further details: dose 3 mg/kg, route intravenous.
Data set [12] can be described thus: Half life in Sprague-Dawley rat at 10 mg/kg, po. It counts as ADME, organism-based. The arrangement: dose 10 mg/kg, route oral. To be noted: in vivo.
A short description of data set [13]: AUC in Sprague-Dawley rat at 3 mg/kg, iv. To be noted: plasma. The arrangement: dose 3 mg/kg, route intravenous. The format is ADME, organism-based.
A short description of data set [14]: Volume of distribution at steady state in Sprague-Dawley rat at 3 mg/kg, iv. The format is ADME, organism-based. The arrangement: dose 3 mg/kg, route intravenous. To be noted: in vivo, read-out: Vdss.
Data set [15] in a line: Oral bioavailability in Sprague-Dawley rat at 10 mg/kg. It counts as ADME, organism-based. To be noted: in vivo.
A short description of data set [16]: Cmax in dog at 3 mg/kg, iv. To be noted: in vivo. It counts as ADME, organism-based, Canis lupus familiaris. Further details: dose 3 mg/kg, route intravenous.
Data set [17] can be described thus: Cmax in Sprague-Dawley rat at 10 mg/kg, po. It counts as ADME, organism-based. The arrangement: dose 10 mg/kg, route oral. To be noted: in vivo.
Data set [18] in a line: AUC in Sprague-Dawley rat at 10 mg/kg, po. To be noted: plasma. It counts as ADME, organism-based. The arrangement: dose 10 mg/kg, route oral.
The nature of data set [19]: Oral bioavailability in dog at 10 mg/kg. To be noted: in vivo. The format is ADME, organism-based, Canis lupus familiaris.
The nature of data set [20]: Cmax in dog at 10 mg/kg, po. To be noted: in vivo. It counts as ADME, organism-based, Canis lupus familiaris. Further details: dose 10 mg/kg, route oral.
Data set [21] can be described thus: Volume of distribution at steady state in dog at 3 mg/kg, iv. It counts as ADME, organism-based, Canis lupus familiaris. Further details: dose 3 mg/kg, route intravenous. To be noted: in vivo, read-out: Vdss.
Data set [22] can be described thus: Clearance in Sprague-Dawley rat at 3 mg/kg, iv. Further details: dose 3 mg/kg, route intravenous. To be noted: in vivo. The format is ADME, organism-based.
The nature of data set [23]: Tmax in Sprague-Dawley rat at 10 mg/kg, po. Further details: dose 10 mg/kg, route oral. It counts as ADME, organism-based. To be noted: in vivo.
Data set [24] can be described thus: Half life in dog at 10 mg/kg, po. To be noted: in vivo. The arrangement: dose 10 mg/kg, route oral. The format is ADME, organism-based, Canis lupus familiaris.
Another data set relates to Liver microsome. Nature of the data set: Drug metabolism in human liver microsomes assessed as oxidation. The format is ADME.

Regarding `Cc1c(N2CCOCC2=O)cccc1S(=O)(=O)N[C@@H](CNC(=O)c1ccc(Cl)s1)C(=O)N1CCN(C)CC1`, the remaining at 20 min, 5 µM is 0% in [1], 52% in data set [2] and 26% in data set [3].
In the same order, the values of `Cc1c(N2CCOCC2=O)cccc1S(=O)(=O)N[C@@H](CNC(=O)c1ccc(Cl)s1)C(=O)N1CCOC[C@@H]1C` are 58%, 74% and 91%.
Taken in the same sequence, the figures for `CCc1c(N2CCOCC2=O)cccc1S(=O)(=O)N[C@@H](CNC(=O)c1ccc(Cl)s1)C(=O)N1CCC(OC)CC1` were 99%, 99% and 98%.
In the same order, the values of `CCc1c(N2CCOCC2=O)cccc1S(=O)(=O)N[C@@H](CNC(=O)c1ccc(Cl)s1)C(=O)N1CCC(O)CC1` are 51%, 80% and 68%.
As for `O=C(NC[C@H](NS(=O)(=O)c1cccc(N2CCOCC2=O)c1Cl)C(=O)N1CCC(O)CC1)c1ccc(Cl)s1`, the remaining at 20 min, 5 µM was 58% in data set [1], 38% in data set [2] and 18% in [3].
Taken in the same sequence, the figures for `CN1CCN(C(=O)[C@H](CNC(=O)c2ccc(Cl)s2)NS(=O)(=O)c2cccc(N3CCOCC3=O)c2Cl)CC1` were 63%, 72% and 69%.
Taken in the same sequence, the figures for `CN1CCN(C(=O)[C@H](CNC(=O)c2ccc(Cl)s2)NS(=O)(=O)c2cccc(N3CCCC3=O)c2Cl)CC1` were 54%, 59% and 45%.
Consider `Cc1c(-c2ccccn2)cccc1S(=O)(=O)N[C@@H](CCCc1ccc(N)cn1)C(=O)N1CCC(=C(F)F)CC1`, for which the Papp in [4] turned out to be 9.6 ×10⁻⁶ cm/s.
`Cc1c(N2CCCC2=O)cccc1S(=O)(=O)N[C@@H](CNC(=O)c1ccc(Cl)s1)C(=O)N1CCN(C)CC1.Cl`: the Cmax in data set [5] amounted to 1300 ng/mL; in [16], 3500 ng/mL; in data set [17], 154 ng/mL; in [20], 1530 ng/mL. The exposure (AUC) stood at 2600 ng·h/mL in data set [6], 1800 ng·h/mL in data set [10], 510 ng·h/mL in [13] and 360 ng·h/mL in data set [18]. Moreover, the half-life is 6.6 h in data set [7], 1.1 h in data set [9], 6.2 h in data set [12] and 2.4 h in [24]. For the same molecule, the time of peak concentration (Tmax) in data set [8] is 0.5 h; in [23], 0.25 h. The clearance in data set [11] stood at 28.3 mL/min/kg; in data set [22], 96.7 mL/min/kg. Further, the values for the remaining at 20 min, 5 µM in [1], in data set [2] and in data set [3] were 25%, 34% and 25%, respectively. Further, the Vd in [14] was 4.6 L/kg; in data set [21], 1.5 L/kg. Further, the bioavailability in data set [15] turned out to be 21%; in data set [19] it was 47%.
For `CCc1c(-c2ccccn2)cccc1S(=O)(=O)N[C@@H](CNC(=O)c1ccc(Cl)s1)C(=O)N1CCOC[C@@H]1C`, the remaining at 20 min, 5 µM was 65% in data set [1], 99% in [2] and 99% in [3]. The Drug metabolism entry in the data set on Liver microsome is listed as “Active”.
With `CCc1c(N2CCOCC2=O)cccc1S(=O)(=O)N[C@@H](CNC(=O)c1ccc(Cl)s1)C(=O)N1CCOC[C@@H]1C`, the remaining at 20 min, 5 µM in data set [1], in data set [2] and in data set [3] was 99% throughout.
